The values below come from PubChem BioAssay (NCI).

Among the test systems are SK-MEL-2 melanoma; A498 renal; OVCAR-8 ovarian; KM12 colon; CCRF-CEM leukemia; K-562 leukemia; CAKI-1 renal; UACC-62 melanoma; MOLT-4 leukemia; SF-539 CNS.
Holding throughout (assay): NCI anticancer screen, dose series, 48 h

Where “and” joins values, the source holds several entries; their conditions need not be identical. Equal values may be shown once.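 Briefly, cells in 96-well plates were exposed to five compound concentrations for 48 h, and endpoints were estimated by linear interpolation. GI50: concentration for 50% inhibition of growth. TGI is the concentration that stops growth completely.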 Bounds are passed on as bounds.

On to `COc1ccccc1N=Nc1c(O)ccc2ccccc12`, for which the TGI was > 100 µM with SK-MEL-2 melanoma; 62.3 µM and 89.2 µM in the test with A498 renal; > 100 µM in the test with OVCAR-8 ovarian; > 100 µM with KM12 colon; > 100 µM with CCRF-CEM leukemia; > 100 µM with K-562 leukemia. Also, the TGI was 38.8 µM and 48.6 µM in the test on CAKI-1 renal; > 100 µM in the test on UACC-62 melanoma; > 100 µM in the test on MOLT-4 leukemia. The GI50 in the test on UACC-62 melanoma is 30.4 µM and 61.4 µM.
For the compound `CC(=O)c1c(-c2ccc(Cl)cc2)c(C#N)c(=S)n(C2OC(CO)C(O)C(O)C2O)c1C` (centres undefined), the TGI with SK-MEL-2 melanoma was 84.5 µM; in the test with A498 renal, > 100 µM; in the test with OVCAR-8 ovarian, > 100 µM; in the test on KM12 colon, > 100 µM; in the test with CCRF-CEM leukemia, 63.7 µM; in the test on K-562 leukemia, > 100 µM. In addition, the TGI with SF-539 CNS is > 100 µM; with UACC-62 melanoma, 57.8 µM; in the test on MOLT-4 leukemia, 52.8 µM.
In the case of `CN(Cc1cnc2nc(N)nc(N)c2n1)c1ccc(C(=O)NC(CCC(=O)O)C(=O)O)c2ccccc12` (centres undefined), the GI50 with SK-MEL-2 melanoma is > 1000 µM; with A498 renal, 0.0152 µM. Also, the TGI in the test on SK-MEL-2 melanoma, in the test with A498 renal, with OVCAR-8 ovarian, with KM12 colon, in the test with CCRF-CEM leukemia and in the test on K-562 leukemia was > 1000 µM in each case. The TGI in the test on CAKI-1 renal, with UACC-62 melanoma and in the test with MOLT-4 leukemia was > 1000 µM each time.
Take `O=[N+]([O-])/C=C/c1cc(Cl)c(/C=C/[N+](=O)[O-])cc1Cl`: the TGI in the test on SK-MEL-2 melanoma was 12.8 µM; with A498 renal it was 14.2 µM; in the test with KM12 colon, > 24.6 µM; with CCRF-CEM leukemia, > 100 µM; with UACC-62 melanoma, 4.34 µM.
`Cc1ccc(S(=O)(=O)NC(=O)Nc2ccc(C(=O)O)cc2)cc1`: the TGI with SK-MEL-2 melanoma, with OVCAR-8 ovarian, in the test with KM12 colon, with CCRF-CEM leukemia, in the test on K-562 leukemia and in the test with SF-539 CNS was > 100 µM each time. For the same compound, the TGI in the test with UACC-62 melanoma and with MOLT-4 leukemia was > 100 µM in each case.
`O=C(O)C1CCC(=O)N1C(=O)COc1cc(Cl)c(Cl)cc1Cl` (centres undefined): the TGI in the test with A498 renal, in the test with OVCAR-8 ovarian, in the test with KM12 colon, in the test with CAKI-1 renal and in the test with UACC-62 melanoma was > 100 µM throughout.
Regarding `COc1ccc2oc(=O)c(-c3cc4c(c(C)n3)c(=O)oc3ccc(OC)cc34)cc2c1`, the TGI with SK-MEL-2 melanoma, in the test on OVCAR-8 ovarian, in the test with KM12 colon, in the test on CCRF-CEM leukemia, in the test on K-562 leukemia and in the test with SF-539 CNS was > 100 µM in each case. Further, the TGI with CAKI-1 renal, with UACC-62 melanoma and with MOLT-4 leukemia was > 100 µM in each case.
Regarding `CC(C)(NO)/C(=N\O)c1ccccc1`, the TGI in the test on SK-MEL-2 melanoma, in the test with OVCAR-8 ovarian, in the test on KM12 colon, in the test on CCRF-CEM leukemia, in the test with K-562 leukemia and in the test with CAKI-1 renal was > 10 µM in each case. For the same compound, the TGI with MOLT-4 leukemia was > 10 µM.
For `Cc1nc(C(=Nc2ccc(Br)cc2)Nn2cnnc2)no1`, the TGI in the test with SK-MEL-2 melanoma, in the test with A498 renal, in the test on OVCAR-8 ovarian, in the test with KM12 colon, with CCRF-CEM leukemia and with K-562 leukemia was > 100 µM in each case. The TGI with CAKI-1 renal, with UACC-62 melanoma and with MOLT-4 leukemia was > 100 µM in each case.
Consider `CC(=O)OC12c3ccccc3C(c3ccccc31)C1C(=O)N(N=C(C)C)C(=O)C12` (centres undefined), for which the TGI in the test with OVCAR-8 ovarian, with KM12 colon, in the test on CCRF-CEM leukemia, in the test with K-562 leukemia, in the test on SF-539 CNS and in the test with CAKI-1 renal was > 100 µM throughout. In addition, the TGI with UACC-62 melanoma and with MOLT-4 leukemia was > 100 µM in each case.
Regarding `COCOC1CCCC[C@@]1(OCCOCCO[C@@]1(c2ccccc2)CCCC[C@H]1OCOC)c1ccccc1` (some centres undefined), the TGI with SK-MEL-2 melanoma, in the test on OVCAR-8 ovarian, in the test with KM12 colon, with CCRF-CEM leukemia, in the test with K-562 leukemia and in the test with CAKI-1 renal was > 100 µM in each case. For the same compound, in the test with UACC-62 melanoma, the TGI is > 100 µM.
Turning to `CC(C)CNP(=O)(NCC(C)C)Oc1ccc(CC(NC(=O)OCc2ccccc2)C(=O)OCc2ccccc2)cc1` (centres undefined), the TGI turned out to be 34.8 µM in the test with SK-MEL-2 melanoma; 50.8 µM with A498 renal; 32.7 µM in the test with OVCAR-8 ovarian; 38.3 µM in the test with KM12 colon; 32.8 µM in the test with CCRF-CEM leukemia; 59.4 µM in the test on K-562 leukemia. In addition, the figures for the TGI with CAKI-1 renal, in the test with UACC-62 melanoma and in the test with MOLT-4 leukemia were > 100 µM, 34.1 µM and 41.1 µM, respectively.
Turning to `COc1cc(C2c3cc4c(cc3[C@@H](Nc3ccc(F)cc3)C3COC[C@H]23)OCO4)cc(OC)c1O` (some centres undefined), the TGI is > 25 µM with OVCAR-8 ovarian; > 25 µM in the test on KM12 colon; 8.45 µM with CCRF-CEM leukemia; 20.7 µM in the test with K-562 leukemia; 3.49 µM in the test with SF-539 CNS; 0.993 µM in the test on MOLT-4 leukemia.
Regarding `Cc1cc2nc(N3C(=O)/C(=C/Cc4ccco4)N=C3c3ccccc3)sc2cc1C`, the TGI in the test with SK-MEL-2 melanoma was > 100 µM; with OVCAR-8 ovarian, > 100 µM; in the test on KM12 colon, > 100 µM; with CCRF-CEM leukemia, 28.1 µM; in the test with K-562 leukemia, > 100 µM; with SF-539 CNS, > 100 µM. For the same compound, the TGI in the test on CAKI-1 renal, in the test on UACC-62 melanoma and in the test with MOLT-4 leukemia was > 100 µM each time.
For the compound `COc1cccc(/C=N/[N-]C(N)=O)c1[O-].[Cu+2].[OH3+]`, the TGI in the test with SK-MEL-2 melanoma came to 31.3 µM; in the test with A498 renal, 32.2 µM; with OVCAR-8 ovarian it was 24.4 µM; with KM12 colon, 28 µM; in the test with K-562 leukemia, 45.2 µM; in the test on SF-539 CNS, 33.5 µM. In the test on MOLT-4 leukemia, this compound registered a TGI of 38.3 µM. The GI50 in the test on OVCAR-8 ovarian was 10.7 µM; with K-562 leukemia, 5.7 µM; in the test with MOLT-4 leukemia, 10.1 µM.
As to `NC1CCC2(O)c3ccccc3C2C1` (centres undefined), the TGI in the test on SK-MEL-2 melanoma, in the test with OVCAR-8 ovarian, in the test on KM12 colon, in the test with CCRF-CEM leukemia, in the test on K-562 leukemia and with UACC-62 melanoma was > 100 µM in each case. The TGI in the test with MOLT-4 leukemia is > 100 µM.
Turning to `CC(=O)CCC1(C(=O)OCC(C)C)CCCC1=O` (centres undefined), the TGI in the test with SK-MEL-2 melanoma, in the test on OVCAR-8 ovarian, in the test with KM12 colon, in the test on CCRF-CEM leukemia, with K-562 leukemia and with SF-539 CNS was > 100 µM each time. For the same compound, the TGI in the test with CAKI-1 renal, in the test on UACC-62 melanoma and in the test with MOLT-4 leukemia was > 100 µM in each case.
As to `O=C(/C=C\c1ccccc1)Oc1ccc(/C=C2\CCC/C(=C\c3ccc(OC(=O)/C=C\c4ccccc4)cc3)C2=O)cc1`, the TGI in the test on SK-MEL-2 melanoma, with OVCAR-8 ovarian, in the test on KM12 colon, in the test on CCRF-CEM leukemia, with SF-539 CNS and with CAKI-1 renal was > 100 µM each time. Further, the TGI with UACC-62 melanoma and with MOLT-4 leukemia was > 100 µM throughout.
As for `O=C(O)CCCc1ccc2c(c1)C(C(=O)O)CC2` (centres undefined), the TGI in the test on SK-MEL-2 melanoma, in the test with OVCAR-8 ovarian, in the test on KM12 colon, with CCRF-CEM leukemia, in the test on K-562 leukemia and with SF-539 CNS was > 100 µM in each case. The TGI in the test with CAKI-1 renal, in the test on UACC-62 melanoma and in the test on MOLT-4 leukemia was > 100 µM in each case.
In the case of `O=S(Nc1ccccc1)c1ccc(Cl)cc1` (centres undefined), the TGI in the test on SK-MEL-2 melanoma was > 100 µM; in the test on OVCAR-8 ovarian, > 100 µM; in the test on KM12 colon, 59.9 µM; in the test on CCRF-CEM leukemia, > 100 µM; in the test on K-562 leukemia, > 100 µM; with SF-539 CNS, 46.7 µM. Also, the TGI in the test on CAKI-1 renal is > 100 µM; in the test with UACC-62 melanoma, 90 µM; in the test with MOLT-4 leukemia, > 100 µM.
On to `O=C(OCCN=c1c2ccccc2ccc2ccccc12)c1cc([N+](=O)[O-])cc([N+](=O)[O-])c1`, for which the TGI in the test with SK-MEL-2 melanoma, in the test on OVCAR-8 ovarian, in the test on KM12 colon, in the test on CCRF-CEM leukemia, in the test on K-562 leukemia and in the test with SF-539 CNS was > 100 µM each time. The TGI in the test with CAKI-1 renal, in the test on UACC-62 melanoma and with MOLT-4 leukemia was > 100 µM in each case.
`CCc1c(O)nc(Nc2nc3ccccc3[nH]2)[nH]c1=O`: the TGI with SK-MEL-2 melanoma, in the test on A498 renal, in the test with OVCAR-8 ovarian, in the test on CCRF-CEM leukemia, in the test on K-562 leukemia and in the test with SF-539 CNS was > 100 µM each time. Also, the TGI in the test with UACC-62 melanoma is > 100 µM.
For the compound `Nc1c(C(=O)O)c2ccc([N+](=O)[O-])cc2c(=O)n1-c1nc2ccccc2s1`, the TGI in the test on SK-MEL-2 melanoma, with A498 renal, in the test on OVCAR-8 ovarian, with KM12 colon, with CCRF-CEM leukemia and with K-562 leukemia was > 100 µM each time. Further, the TGI in the test with CAKI-1 renal, in the test on UACC-62 melanoma and in the test on MOLT-4 leukemia was > 100 µM each time.
